Measurements: patent US5389616A, “Amino acid derivatives” (Hoffman-LaRoche Inc., priority 1988, dated 1995)

Molecular target: T1, human renin (Homo sapiens, UniProt P00797)
T1 sequence (P00797 67-406): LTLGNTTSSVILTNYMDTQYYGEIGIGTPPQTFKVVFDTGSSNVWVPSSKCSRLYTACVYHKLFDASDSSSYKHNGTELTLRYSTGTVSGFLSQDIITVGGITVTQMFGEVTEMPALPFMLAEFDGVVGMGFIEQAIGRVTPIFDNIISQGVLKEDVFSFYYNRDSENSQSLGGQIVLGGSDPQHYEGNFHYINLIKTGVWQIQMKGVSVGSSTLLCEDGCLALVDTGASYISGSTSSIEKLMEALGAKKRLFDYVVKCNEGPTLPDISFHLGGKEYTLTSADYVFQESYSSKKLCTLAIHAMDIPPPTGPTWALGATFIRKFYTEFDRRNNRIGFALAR
Test: In vitro test with pure human renin
Assay type: biochemical
Conditions: human tetradecapeptide renin substrate (hTD), pH 7.4, incubated 3 hours at 37° C. or 4° C., angiotensin I production measured via RIA
Experimental: In vitro test with pure human renin
The test is carried out in Eppendorf test tubes. The incubation mixture consists of (1) 100μl of human renin in buffer A (0.1M sodium phosphate solution, pH 7.4, containing 0.1% bovine serum albumin, 0.1% sodium azide and 1 mM ethylenediaminetetraacetic acid), sufficient for a renin activity of 2--3 ng of angiotensin I/ml/hr.; (2) 145 μl of buffer A; (3) 30 μl of 10 μM human tetradecapeptide renin substrate (hTD) in 10 mM hydrochloric acid; (4) 15 μl of dimethyl sulphoxide with or without inhibitor and (5) 10 μl of a 0.03 molar solution of hydroxyquinoline sulphate in water.
The samples are incubated for 3 hours at 37° C. or 4° C. in triplicate. 2 ×100 μl samples per experimental test tube are used in order to measure the production of angiotensin I via RIA (standard radioimmunoassay; clinical assay solid phase kit). Cross reactivities of the antibody used in the RIA are: angiotensin I 100%; angiotensin II 0.0013%; hTD (angiotensin I-Val-Ile-His-Ser-OH) 0.09%. The production of angiotensin I is determined by the difference between the experiment at 37° C. and that at 4° C.
The following controls are carried out:
(a) Incubation of hTD samples without renin and without inhibitor at 37° C. and 4° C. The difference between these two values gives the base value of angiotensin I production.
(b) Incubation of hTD samples with renin, but without inhibitor at 37° C. and 4° C. The difference between these values gives the maximal-value of angiotensin I production.
In each sample the base value of the angiotensin I production is subtracted from the angiotensin I production which is determined. The difference between the maximal value and the base value gives the value of the maximal substrate hydrolysis (=100%) by renin.
The results are given as IC50 values which denote that concentration of the inhibitor at which the enzymatic activity is inhibited by 50%. The IC50 values are determined from a linear regression curve from a logit-log plot.

SMILES	IC50
CCC(CC)C(O)[C@H](O)[C@H](CC1CCCCC1)NC(=O)[C@H](Cc1c[nH]cn1)NC(=O)[C@@H](CC(=O)C(C)(C)C)Cc1ccccc1 (mixture of isomers) [A, (S)-N-[(1S,2R,3RS)-1-(Cyclohexylmethyl)-4-ethyl-2,3-dihydroxyhexyl]-α-[(R)-α-(3,3-dimethyl-2-oxobutyl)hydrocinnamamido]imidazole-4-propionamide]	24 nM
CC(C)(C)C(O)[C@H](O)[C@H](CC1CCCCC1)NC(=O)[C@H](Cc1c[nH]cn1)NC(=O)[C@H](Cc1ccccc1)CS(=O)(=O)C(C)(C)C (mixture of isomers) [F, (S)-α-[(S)-α-[(t-butylsulphonyl)methyl]hydrocinnamamido]-N-[(1S,2R,3RS)-1-(cyclohexylmethyl)-2,3-dihydroxy-4,4-dimethylpentyl]imidazole-4-propionamide]	38 nM
CC(C)(C)C(=O)C[C@@H](Cc1ccccc1)C(=O)N[C@@H](Cc1c[nH]cn1)C(=O)N[C@@H](CC1CCCCC1)[C@@H](O)[C@@H](O)C1CCCCC1 [B, (S)-N-[(1S,2R,3S)-3-cyclohexyl-1-(cyclohexylmethyl)-2,3-dihydroxypropyl]-α-[(R)-α-(3,3-dimethyl-2-oxobutyl)-hydrocinnamamido]imidazole-4-propionamide]	1 nM
CC(C)[C@H](O)[C@H](O)[C@H](CC1CCCCC1)NC(=O)[C@H](Cc1c[nH]cn1)NC(=O)[C@@H](CC(=O)C(C)(C)C)Cc1ccccc1 [C, (S)-N-[(1S,2R,3S)-1-(cyclohexylmethyl)-2,3-dihydroxy-4-methylpentyl]-α-[(R)-α-(3,3-dimethyl-2-oxobutyl)hydrocinnamamido]imidazole-4-propionamide]	3 nM
CC(C)(C)S(=O)(=O)C[C@@H](Cc1ccccc1)C(=O)N[C@@H](Cc1c[nH]cn1)C(=O)N[C@@H](CC1CCCCC1)[C@@H](O)[C@@H](O)c1ccccc1 [D, (S)-α-[(S)-α-[(t-butylsulphonyl)methyl]hydrocinnamamido]-N-[(1S,2R,3S)-1-(cyclohexylmethyl)-2,3-dihydroxy-3-phenylpropyl]imidazole-4-propionamide]	7 nM
CC(C)(C)S(=O)(=O)C[C@@H](Cc1ccccc1)C(=O)N[C@@H](Cc1c[nH]cn1)C(=O)N[C@@H](CC1CCCCC1)[C@@H](O)[C@H](O)c1ccccc1 [E, (S)-α-[(S)-α-[(t-butylsulphonyl)methyl]hydrocinnamamido]-N-[(1S,2R,3R)-1-(cyclohexylmethyl)-2,3-dihydroxy-3-phenylpropyl]imidazole-4-propionamide]	170 nM
CC(C)[C@H](O)[C@H](O)[C@H](CC1CCCCC1)NC(=O)[C@H](Cc1c[nH]cn1)NC(=O)[C@H](Cc1ccccc1)CS(=O)(=O)C(C)(C)C [G, (S)-α-[(S)-α-[(t-butylsulphonyl)methyl]hydrocinnamamido]-N-[(1S,2R,3S)-1-(cyclohexylmethyl)-2,3-dihydroxy-4-methylpentyl]imidazole-4-propionamide]	2 nM
CC(C)(C)S(=O)(=O)C[C@@H](Cc1ccccc1)C(=O)N[C@@H](Cc1c[nH]cn1)C(=O)N[C@@H](CC1CCCCC1)[C@@H](O)[C@@H](O)C1CCCCC1 [H, (S)-α-[(S)-α-[(t-butylsulphonyl)methyl]hydrocinnamamido]-N-[(1S,2R,3S)-3-cyclohexyl-1-(cyclohexylmethyl)-2,3-dihydroxypropyl]imidazole-4-propionamide]	2 nM
